Where “and” joins values, the source holds several entries; their conditions need not be identical. Equal entries are not always repeated.
Key:
suckers = assay: Control of suckers in 24-hour applications, usable concentration; type: in vivo
Excerpt: For field applications the concentration of the dichloro- and tetrachloro-compounds would vary with water quality--mainly with regard to water temperature and hydrogen ion concentrations. Generally, treated areas would contain water low in dissolved solids and a pH of 7 to 7.5. The activity of the chemicals would then be essentially similar to that determined in our tests using river water. For the treatment of rivers and shorelines of lakes the concentrations of the dichloro- and tetrachloro-compounds that would be used would be those that would kill stickleback or suckers in 12 to 24 hours. The information above, relating to Examples 1 and 12, substantiates improvement in fish culture by the addition of dichloroethyl or dichlorovinyl diethyl phosphate to an aqueous habitat at a concentration in water ranging between 0.1 and 10 mg/l. […] The information above, relating to Example 2, substantiates improvement in fish culture by the addition of tetrachloroethyl diethyl phosphate to an aqueous habitat at a concentration in water ranging between 4 and 80 μg/l.

threespine stickleback = system: threespine stickleback; parameters: species or system Gasterosteus aculeatus; details: in vivo
sockeye salmon = assay: Static bioassay, lethal concentration to sockeye salmon; type: in vivo, O. nerka
Experimental: (§1) Bioassays utilized water from an artesian well at Moscow, Idaho and from the headwaters of the Palouse River, also in Idaho. The chemical characteristics of the artesian water were analyzed as follows: Total hardness 67-120 mg/l; total dissolved solids, 160-175 mg/l; and pH 7.1. The chemistry of the Palouse River water was analyzed as follows: total hardness 17 mg/l; methyl orange alkalinity 26 mg/l; total dissolved solids, 32 mg/l and pH, 7.0.
(§2) Fish were acclimated to test temperatures, usually at 5, 7.5, 10, 15 and 20 degrees Celsius (C), at least 60 hours before exposure to toxicants. For fish and crayfish four water baths regulated the temperature of assay aquaria. Each water bath contained a battery of 20 identical 19-liter clear glass containers or 11.4-liter plastic aquaria lined with disposable polyethylene bags and covered with Plexiglass lids to reduce evaporation. For larger fish and large numbers of fish the bioassays were made in two temperature controlled rooms that contained a series of 700-liter circular fiberglass vats and a series of 76- and 91-liter plastic containers.
(§3) Standard bioassay techniques were used in sorting fish and conducting the tests. Fish were placed in aerated test aquaria overnight to permit fish to recover from stress due to handling and to deprive them of food. The average load varied but most bioassays were conducted with about 1 g of fish per liter of water.
(§4) Aliquots of organophosphates were dissolved in ethanol and dispensed to the aquaria to provide concentrations suitable for obtaining the LC0 and LC50 of desirable fish and the LC50 and LC100 of target fish. Control fish were conditioned in the same manner as the test fish, but no chemical was added to the control vessels during the assays. After the addition of a chemical, observations were made mainly at 3, 6, 12, 24, 48, 96, and 192 h. The weight and fork length of fish were obtained when fishes were sacrificed.
(§5) Delineation bioassays determined primarily the LC50 and LC100 of sucker and stickleback and the LC0 and LC50 of salmonids.
(§6) The statistical LC1, LC50, and LC99 were interpolated and/or extrapolated using probit graph paper to approximate the LC0, LC50, and LC100 when the latter set of values was not closely determined by single concentrations in a series.
(§7) The approximate LC50 and LC100 of the target fishes (threespine and brook sticklebacks and bridgelip and white suckers) are tabulated in Table 1. The 96-hour selectivity and safety indices of selected species of salmonids versus the three-spine stickleback are tabulated in Table 3.
(§8) Threespine stickleback, brook stickleback, bridgelip sucker, white sucker, chinook salmon, coho salmon, sockeye salmon, kokanee, Kamloops trout, cutthroat trout, and brook trout were treated with various concentrations of 2, 2, 2, 1-tetrachloroethyl diethyl phosphate and at various temperatures to determine approximate selectivity and safety indices. The approximate LC50 and LC100 of the target fishes (threespine and brook sticklebacks and bridgelip and white suckers) are tabulated in Table 5. The 96-hour selectivity and safety indices of selected species of salmonids versus the threespine stickleback are tabulated in Table 7.

[1] = as above; type: in vivo, O. nerka; details: sockeye salmon, in vivo
Experimental: as §1, §2, §3, §4, §5, §6, §7, §8

cutthroat trout = assay: Static bioassay, lethal concentration to cutthroat trout; type: in vivo, S. clarki
Experimental: as §1, §2, §3, §4, §5, §6, §7, §8

[2] = as above; type: in vivo, S. clarki; details: cutthroat trout, water
Experimental: as §1, §2, §3, §4, §5, §6, §7, §8

Kamloops trout = assay: Static bioassay, lethal concentration to Kamloops trout; type: in vivo, Kamloops (an adfluvial rainbow trout)
Experimental: as §1, §2, §3, §4, §5, §6, §7, §8

[3] = as above; type: in vivo, Kamloops (an adfluvial rainbow trout); details: kamloops trout, in vivo
Experimental: as §1, §2, §3, §4, §5, §6, §7, §8

Arctic grayling = assay: Exploratory bioassay, Arctic grayling; type: in vivo, Thymallus arcticus; details: 10 μg/l; 48 h
Experimental: Cursory bioassays were made with small numbers of other fishes and a crayfish (Pacifasticus klamathensis) to check on the universal selectivity of the toxicants. The fishes included Arctic grayling (Thymallus arcticus), longnose sucker (C. catastomus), largescale sucker, (C. macrocheilus), and spotted sucker (Minytrema melanops).
Three longnose suckers (about 125 mm) and three Arctic grayling (about 125 mm) were exposed to 10 μg/l of 2, 2, 2, 1-tetrachloroethyl diethyl phosphate. The suckers died between 14 and 22 hours at 13 C. The grayling were not affected in 48-hour biassays.

[4] = 10 C, individually, read-out: LC50
[5] = with 4 Cl 300:1, 10 C, read-out: LC50 in combination, 2 Cl component
[6] = 10 C, 96 h, individually, listed as 2, 2, 2, 1-tetrachloroethyl diethyl phosphate
[7] = 10 C, 96 h, individually, listed as 4 Cl
[8] = with 2 Cl 1:300, 10 C, read-out: LC50 in combination, 4 Cl component

For `CCOP(=O)(OC=C(Cl)Cl)OCC` [2,2-dichlorovinyl diethyl phosphate], the “recommended safe and effective concentration” value (suckers; 10 to 15 C, river water tests) was 1.0 mg/L, the “LC50 in combination, 2 Cl component” value (threespine stickleback) was 0.3 µg/mL and 0.2 µg/mL and the LC0 (sockeye salmon; 7.5 C, 48 h) was greater than 10000 µg/L. For the same compound, the LC0 (sockeye salmon; 7.5 C, 96 h) was 6000 µg/L, the LC0 (sockeye salmon; 7.5 C, 192 h) was 2000 µg/L and the LC0 (sockeye salmon; 10 C, 48 h) was 6000 µg/L. For the same compound, the LC0 (sockeye salmon; 10 C, 96 h) was 3000 µg/L, the LC0 (sockeye salmon; 10 C, 96 h, individually, listed as 2, 2-dichlorovinyl diethyl phosphate) was 3000 µg/L and the LC0 (sockeye salmon; 10 C, 96 h, individually, listed as 2 Cl) was 3600 µg/L. For the same compound, the LC0 (sockeye salmon; 10 C, 192 h) was 2000 µg/L, the LC50 at 48 h ([1]; 7.5 C) was greater than 10 µg/mL and the LC50 at 96 h ([1]; 7.5 C, read-out: LC50) was 9 µg/mL. It also gave an LC50 at 192 h ([1]; 7.5 C, read-out: LC50) of 4 µg/mL, an LC50 at 48 h ([1]; 10 C) greater than 8 µg/mL and an LC50 at 96 h [1, 4] of 6 µg/mL. It also gave an LC50 at 96 h ([1]; 10 C, read-out: LC50) of 6 µg/mL, an LC50 at 192 h [1, 4] of 3.6 µg/mL and an LC50 at 192 h ([1]; 10 C, read-out: LC50) of 3.4 µg/mL. The LC50 at 96 h [1, 5] was 2.4 µg/mL, the LC50 at 192 h [1, 5] was 1.8 µg/mL and the LC0 (cutthroat trout; 10 C, 96 h) was 4000 µg/L. It also gave an LC0 (cutthroat trout; 15 C, 48 h) of 4000 µg/L, an LC0 (cutthroat trout; 15 C, 96 h) of 2000 µg/L and an LC0 (cutthroat trout; 15 C, 192 h) of 1000 µg/L. For the same compound, the LC50 at 192 h ([2]; 10 C) was 4.8 µg/mL, the LC50 at 48 h ([2]; 15 C) was 5.3 µg/mL and the LC50 at 96 h ([2]; 15 C) was 2.5 µg/mL. It also gave an LC50 at 192 h ([2]; 15 C) of 1.8 µg/mL, an LC0 (Kamloops trout; 5 C, 48 h) greater than 4.0 mg/L and an LC0 (Kamloops trout; 5 C, 96 h) of 2.0 mg/L. For the same compound, the LC0 (Kamloops trout; 5 C, 192 h) was 1.4 mg/L, the LC0 (Kamloops trout; 10 C, 48 h) was greater than 4.0 mg/L and the LC0 (Kamloops trout; 10 C, 96 h) was 2.0 mg/L. It also gave an LC0 (Kamloops trout; 10 C, 96 h, individually) of 2 mg/L, an LC0 (Kamloops trout; 10 C, 192 h) of 1.0 mg/L and an LC0 (Kamloops trout; 15 C, 48 h) of 3.0 mg/L. For the same compound, the LC0 (Kamloops trout; 15 C, 96 h) was 1.0 mg/L, the LC0 (Kamloops trout; 15 C, 192 h) was 1.0 mg/L and the LC50 at 192 h ([3]; 5 C, read-out: LC50) was 5.1 µg/mL. The LC50 at 96 h [3, 4] was 5 µg/mL, the LC50 at 96 h ([3]; 10 C, read-out: LC50) was 5.4 µg/mL and the LC50 at 192 h [3, 4] was 2 µg/mL. It also gave an LC50 at 192 h ([3]; 10 C, read-out: LC50) of 2 µg/mL, an LC50 at 96 h ([3]; 15 C, read-out: LC50) of 3.5 µg/mL and an LC50 at 192 h ([3]; 15 C, read-out: LC50) of 3 µg/mL. The LC50 at 96 h [3, 5] was 2.4 µg/mL and the LC50 at 192 h [3, 5] was 1.5 µg/mL.
With `CCOP(=O)(OCC)OC(Cl)C(Cl)(Cl)Cl` (stereo not drawn) [2,2,2,1-tetrachloroethyl diethyl phosphate] the “estimated LC100 of the sucker” value (suckers; relative to 6 to 4 μg/l for stickleback, 10 C) was “essentially the same”, the “LC50 in combination, 4 Cl component” value (threespine stickleback) was 0.001 µg/mL and 0.00067 µg/mL and the “concentration achieving 100% mortality” value (threespine stickleback) was 7 mg/L. The LC0 (sockeye salmon; 7.5 C, 48 h) was 36 µg/L, the LC0 (sockeye salmon; 7.5 C, 96 h) was 14 µg/L and the LC0 (sockeye salmon; 7.5 C, 192 h) was 10 µg/L. For the same compound, the LC0 (sockeye salmon; 10 C, 48 h) was 20 µg/L, the LC50 (sockeye salmon; 10 C, 96 h, individually) was 0.017 µg/mL and the LC0 (sockeye salmon; [6]) was 12 µg/L and 10 µg/L. It also gave an LC0 (sockeye salmon; [7]) of 12 µg/L, an LC0 (sockeye salmon; 10 C, 192 h) of 10 µg/L and an LC50 (sockeye salmon; 10 C, 192 h, individually, listed as 4 Cl, 11520 min) of 0.015 µg/mL. It also gave an LC50 at 48 h ([1]; 7.5 C) of 0.05 µg/mL, an LC50 at 96 h ([1]; 7.5 C, read-out: LC50) of 0.02 µg/mL and an LC50 at 192 h ([1]; 7.5 C, read-out: LC50) of 0.014 µg/mL. For the same compound, the LC50 at 48 h ([1]; 10 C) was 0.03 µg/mL, the LC50 at 96 h [1, 4] was 0.017 µg/mL and the LC50 at 192 h [1, 4] was 0.016 µg/mL. It also gave an LC50 at 96 h [1, 8] of 0.008 µg/mL, an LC50 at 192 h [1, 8] of 0.006 µg/mL and an LC0 (cutthroat trout; 10 C, 96 h) of 14 µg/L. For the same compound, the LC0 (cutthroat trout; 10 C, 192 h) was 14 µg/L, the LC0 (cutthroat trout; 15 C, 48 h) was 14 µg/L and the LC0 (cutthroat trout; 15 C, 96 h) was 14 µg/L. The LC0 (cutthroat trout; 15 C, 192 h) was 14 µg/L, the LC50 at 96 h ([2]; 10 C) was 0.019 µg/mL and the LC50 at 192 h ([2]; 10 C) was 0.017 µg/mL. For the same compound, the LC50 at 48 h ([2]; 15 C) was 0.022 µg/mL, the LC50 at 96 h ([2]; 15 C) was 0.018 µg/mL and the LC50 at 192 h ([2]; 15 C) was 0.018 µg/mL. For the same compound, the effect on grayling (Arctic grayling) was “not affected”, the LC0 (Kamloops trout; 5 C, 96 h) was 0.024 mg/L and the LC0 (Kamloops trout; 5 C, 192 h) was 0.012 mg/L. The LC0 (Kamloops trout; [6]) was 0.018 mg/L and 0.014 mg/L, the LC0 (Kamloops trout; [7]) was 0.014 mg/L and the LC0 (Kamloops trout; 10 C, 192 h) was 0.01 mg/L. It also gave an LC0 (Kamloops trout; 15 C, 96 h) of 0.024 mg/L, an LC0 (Kamloops trout; 15 C, 192 h) of 0.014 mg/L and an LC50 at 96 h ([3]; 5 C, read-out: LC50) greater than 0.03 µg/mL. It also gave an LC50 at 192 h ([3]; 5 C, read-out: LC50) of 0.018 µg/mL, an LC50 at 96 h [3, 4] of 0.024 µg/mL and an LC50 at 192 h [3, 4] of 0.02 µg/mL. For the same compound, the LC50 at 96 h ([3]; 15 C, read-out: LC50) was greater than 0.024 µg/mL, the LC50 at 192 h ([3]; 15 C, read-out: LC50) was greater than 0.024 µg/mL and the LC50 at 96 h [3, 8] was 0.008 µg/mL. The LC50 at 192 h [3, 8] was 0.005 µg/mL.
